Results on eight compounds are retold here after US20080090756A1, “Somatostatin agonists” (The Administrators of the Tulane Educational Fund, priority 2001, published 2008).

For one experiment, the target named is T1, hSSTR-5 (Homo sapiens, UniProt P35346).
T1 construct: each containing the entire coding region of the full-length receptors; expressed in transfected cells
Briefly: Radioligand binding assay, cloned human somatostatin receptor type 5. The following applies: CHO-K1 cell membranes, displacement of [125I]Tyr11-SRIF; mean ± SEM, single values = one experiment; read-out: Kd ± SEM hsst5. From the text: (§1) Functional Expression of the Cloned Human Somatostatin Receptors. The genomic clones containing the human somatostatin receptors (hSSTR-1 to hSSTR-5) (Yamada, Y., et al. al., Proc. Natl. Acad. Sci. USA. 1992, 89, 251-255; Yasuda, K., et al., J. Biol. Chem. 1992, 267, 20422-20428; Yamada, Y., et al., Mol. Pharmacol. 1992, 42, 2136-2142; Rohrer, L., et al., Proc. Natl. Acad. Sci. USA. 1993, 90, 4196-4200.) were kindly provided by Dr. Graeme I. Bell of the University of Chicago. The hSSTR-1, hSSTR-2, hSSTR-3, hSSTR-4 and hSSTR-5 cDNAs were isolated as a 1.5-kb PstI-XmnI fragment, 1.7-kb BamHI-HindIII fragment, 2.0-kb NcoI-HindIII fragment, 1.4-kb NheI-NdeI fragment, and a 1.2-kb HindIII-XbaI fragment, respectively, each containing the entire coding region of the full-length receptors. These fragments were independently subcloned into the corresponding restriction endonuclease sites in the mammalian expression vector pCMV5, downstream from the human cytomegalovirus (CMV) promoter, to produce the expression plasmids pCMV5/hSSTR-1, pCMV5/hSSTR-2, pCMV5/hSSTR-3, pCMV5/hSSTR-4 and pCMV5/hSSTR-5. For transfection into CHO-K1 cells, a plasmid, pRSV-neo (American Type Culture Collection, Rockville, Md.), carrying the neomycin mammalian cell selectable marker was added.
(§2) Receptor Expression and Transfection. Transfections were performed by the calcium phosphate method. CHO-K1 cells were maintained in α-minimum essential medium (α-MEM; Gibco) supplemented with 10% fetal calf serum and transfected with each of the expression plasmids using calcium phosphate precipitation. Clones that had inherited the expression plasmid were selected in α-MEM supplemented with 500 μg mL^−1 of geneticin (G418; Gibco). Independent CHO-K1 clones were picked by glass-ring cloning and expanded in culture in the selective media. Membranes were prepared from the isolated clones and hSSTR expression was initially assessed for binding with [^125I]Tyr^11-SRIF and [^125I]MK-678 (for SSTR-2).
(§3) Radioligand Binding Assays. Cell membranes of the 5 cells types were obtained from homogenates (Polytron setting 6, 15 sec) of the corresponding CHO-K1 cells, in ice-cold Tris-HCl (50 mM) and centrifuged (39000 g, 10 min×2), with an intermediate resuspension in fresh buffer. The final pellets were resuspended in Tris-HCl (10 mM) for assay. Aliquots of the membranes were incubated (30 min at 37° C.) with 0.05 nM [^125I]Tyr^11-SRIF (types 1, 3, 4, 5) or [^125I]MK-678 (type 2) in […] (pH 7.4) containing BSA (10 mg mL^−1); MgCl2 (5 mM), Trasylol (200 kIU mL^−1), bacitracin (0.02 mg mL^−1), and phenylmethanesulfonyl fluoride (0.02 mg mL^−1). The final assay volume was 0.3 mL and incubations were terminated by rapid filtration through GF/C filters pre-soaked in 0.3% poly(ethylenimine) using a Brandel rapid filtration module. Each tube and filter was then washed with aliquots of cold buffer (3×5 mL).
(§4) Specific binding is defined as the total radioligand bound minus that bound in the presence of 1.0 μM SRIF. The following total radioligand binding and non-specific binding (nsb) values were typically obtained with these assay systems: hSSTR-1, 7000 cpm total versus 3500 cpm nsb; hSSTR-2, 9000 cpm total versus 1000 cpm nsb; hSSTR-3, 8000 cpm total versus 1000 cpm nsb; hSSTR-4, 6000 cpm total versus 3500 cpm nsb; and hSSTR-5, 7500 cpm total versus 3500 cpm nsb. The binding affinities are expressed as Ki values ±SEM (nM) for each of the five receptor subtypes. Ki values derived for representative compounds of the instant invention are detailed in Table 2.
(§5) The binding affinities (Kd, nM) of all SRIF analogues were determined using their concentration-dependent displacement of ^125I-radiolabeled peptide ligands from membranes isolated from CHO cells transfected with the corresponding human somatostatin receptor.

For another experiment, the target named is T2, hSSTR-3 (Homo sapiens, UniProt P32745).
T2 construct: each containing the entire coding region of the full-length receptors; expressed in transfected cells
T2 sequence (P32745 whole entry): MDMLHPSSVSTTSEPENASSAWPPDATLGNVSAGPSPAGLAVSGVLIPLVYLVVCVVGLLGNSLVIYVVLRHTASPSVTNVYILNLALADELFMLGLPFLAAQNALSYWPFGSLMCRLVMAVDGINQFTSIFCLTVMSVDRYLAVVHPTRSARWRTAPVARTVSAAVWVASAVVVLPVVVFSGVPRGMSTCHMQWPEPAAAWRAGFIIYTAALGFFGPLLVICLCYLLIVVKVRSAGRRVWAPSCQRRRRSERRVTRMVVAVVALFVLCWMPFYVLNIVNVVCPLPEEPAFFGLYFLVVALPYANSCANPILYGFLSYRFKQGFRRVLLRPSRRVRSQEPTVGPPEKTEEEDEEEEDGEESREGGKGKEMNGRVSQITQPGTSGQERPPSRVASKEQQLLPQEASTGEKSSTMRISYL
Briefly: Radioligand binding assay, cloned human somatostatin receptor type 3. Particulars: CHO-K1 cell membranes, displacement of [125I]Tyr11-SRIF; mean ± SEM, single values = one experiment; read-out: Kd ± SEM hsst3.
Text: as §1, §2, §3, §4, §5
(In general: Loss of bound radioactivity is the signal in a displacement assay; it reports binding, not function.)

The target of another experiment is T3, hSSTR-2 (Homo sapiens, UniProt P30874).
T3 construct: each containing the entire coding region of the full-length receptors; expressed in transfected cells
T3 sequence (P30874 whole entry): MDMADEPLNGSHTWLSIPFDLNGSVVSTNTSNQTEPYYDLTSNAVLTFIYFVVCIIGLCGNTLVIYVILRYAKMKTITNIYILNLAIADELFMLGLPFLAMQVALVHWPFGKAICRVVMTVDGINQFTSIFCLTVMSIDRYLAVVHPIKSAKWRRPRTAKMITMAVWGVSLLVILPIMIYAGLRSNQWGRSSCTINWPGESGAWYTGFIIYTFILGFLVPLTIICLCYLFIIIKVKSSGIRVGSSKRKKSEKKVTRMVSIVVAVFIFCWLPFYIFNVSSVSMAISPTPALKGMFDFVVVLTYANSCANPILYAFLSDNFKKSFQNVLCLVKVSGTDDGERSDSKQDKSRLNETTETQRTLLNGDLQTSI
Briefly: Radioligand binding assay, cloned human somatostatin receptor type 2. The following applies: CHO-K1 cell membranes, displacement of [125I]MK-678; mean ± SEM, single values = one experiment; read-out: Kd ± SEM hsst2.
Text: as §1, §2, §3, §4, §5

Another experiment has as its target T4, hSSTR-1 (Homo sapiens, UniProt P30872).
T4 construct: each containing the entire coding region of the full-length receptors; expressed in transfected cells
The experiment can be described thus: Radioligand binding assay, cloned human somatostatin receptor type 1. Particulars: CHO-K1 cell membranes, displacement of [125I]Tyr11-SRIF; mean ± SEM, single values = one experiment; read-out: Kd ± SEM hsst1.
Text: as §1, §2, §3, §4, §5

Another experiment deals with T5, hSSTR-4 (Homo sapiens, UniProt P31391).
T5 construct: each containing the entire coding region of the full-length receptors; expressed in transfected cells
T5 sequence (P31391 whole entry): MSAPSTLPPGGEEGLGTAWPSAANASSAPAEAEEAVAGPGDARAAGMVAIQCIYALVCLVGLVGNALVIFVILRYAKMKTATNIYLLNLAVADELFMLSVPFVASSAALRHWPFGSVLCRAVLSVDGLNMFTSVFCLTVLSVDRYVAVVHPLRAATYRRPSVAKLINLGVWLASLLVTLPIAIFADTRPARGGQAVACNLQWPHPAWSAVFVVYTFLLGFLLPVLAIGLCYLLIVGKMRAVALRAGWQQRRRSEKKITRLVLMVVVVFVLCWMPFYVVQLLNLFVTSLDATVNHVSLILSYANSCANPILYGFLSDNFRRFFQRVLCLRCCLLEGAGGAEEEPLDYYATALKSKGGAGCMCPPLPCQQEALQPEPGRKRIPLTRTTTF
The experiment can be described thus: Radioligand binding assay, cloned human somatostatin receptor type 4. The following applies: CHO-K1 cell membranes, displacement of [125I]Tyr11-SRIF; mean ± SEM, single values = one experiment; read-out: Kd ± SEM hsst4.
Text: as §1, §2, §3, §4, §5

Experiment [1] has as its system Culture Rat Pituitary Cells. In kind it is cell-based. The following applies: inhibition of GH release, dispersed rat anterior pituitary cells, GHRH(1-29)NH2 1 nM, 3 h at 37° C.; mean ± SEM of (n) dose response curves; read-out: Agonist IC50 ± SEM (n). As for the experimental part: SRIF Analogue Inhibition of GH Release. Anterior pituitaries from adult male rats were collected and dispersed by a previously described trypsin/DNase method. […] The cells were randomly plated at a density of approximately 200,000 cells/well (Costar cluster 24; Rochester Scientific Co., Rochester, N.Y.). […] In preparation for a hormone challenge, the cells were washed with medium 199 (Gibco, 3×1 mL). Each dose of a compound of this invention was tested in triplicate wells in a total volume of 1 mL medium 199 containing 1% BSA (fraction V; Sigma Chemical Co.). All wells contained GHRH(1-29)NH2 (1 nM). After incubation in an air/carbon dioxide atmosphere (95/5%, 3 h at 37° C.), the medium was removed and stored at −20° C. until assayed for hormone content. Growth hormone in media was measured by a standard double antibody RIA using components generously supplied by Dr. A. F. Parlow at the National Hormone and Pituitary Program (NHHP) Torrance, Calif. Agonist IC50's were calculated using Sigmaplot (Jandel Scientific, San Rafael, Calif.). Values are expressed as the mean IC50 (nM)±SEM from (n) separate dose-response curves.

Bridge positions count the residues as written; N and C are the ends. Square brackets hold non-standard residues; d marks the D form. Peptide text beside a SMILES is read from it. NMeT = CN[C@H](C(=O)O)[C@@H](C)O

T4 sequence (P30872 whole entry): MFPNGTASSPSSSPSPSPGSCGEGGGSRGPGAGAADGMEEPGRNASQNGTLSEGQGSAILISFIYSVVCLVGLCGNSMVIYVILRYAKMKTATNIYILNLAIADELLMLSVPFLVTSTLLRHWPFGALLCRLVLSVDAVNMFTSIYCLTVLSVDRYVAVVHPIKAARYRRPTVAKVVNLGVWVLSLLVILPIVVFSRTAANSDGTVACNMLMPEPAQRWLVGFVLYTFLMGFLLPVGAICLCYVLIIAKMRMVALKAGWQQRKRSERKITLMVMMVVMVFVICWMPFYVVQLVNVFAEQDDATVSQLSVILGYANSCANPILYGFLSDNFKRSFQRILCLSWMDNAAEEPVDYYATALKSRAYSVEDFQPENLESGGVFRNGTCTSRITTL
T1 sequence (P35346 whole entry): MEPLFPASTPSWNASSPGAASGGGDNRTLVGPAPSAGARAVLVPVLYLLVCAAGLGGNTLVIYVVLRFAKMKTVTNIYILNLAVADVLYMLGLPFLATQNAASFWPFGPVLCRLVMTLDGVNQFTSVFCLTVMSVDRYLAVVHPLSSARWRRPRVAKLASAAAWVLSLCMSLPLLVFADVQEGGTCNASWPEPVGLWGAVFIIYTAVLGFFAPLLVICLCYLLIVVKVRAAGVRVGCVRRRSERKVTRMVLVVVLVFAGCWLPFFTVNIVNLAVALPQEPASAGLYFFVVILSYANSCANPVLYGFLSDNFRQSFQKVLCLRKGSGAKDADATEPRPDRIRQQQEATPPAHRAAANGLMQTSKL

Take `CN[C@H](Cc1ccccc1)C(=O)N[C@H]1CSSC[C@@H](C(=O)N[C@H](C(N)=O)[C@@H](C)O)NC(=O)[C@H]([C@@H](C)O)NC(=O)[C@H](CCCCN)NC(=O)[C@@H](Cc2c[nH]c3ccccc23)NC(=O)[C@H](Cc2ccccc2)NC1=O` [Example 1, NMeDPhe-cyclo(Cys-Phe-DTrp-Lys-Thr-Cys)-Thr-NH2]: the Kd at hSSTR-5 turned out to be 0.00489 ± 0.0014 µM; at hSSTR-3, 0.0179 ± 0.0025 µM; at hSSTR-2 it was 0.00103 ± 0.00026 µM; at hSSTR-1, 0.316 ± 0.011 µM.

As for `C[C@@H](O)[C@H](NC(=O)[C@@H]1CSSC[C@H](N(C)C(=O)[C@H](N)Cc2ccccc2)C(=O)N[C@@H](Cc2ccccc2)C(=O)N[C@H](Cc2c[nH]c3ccccc23)C(=O)N[C@@H](CCCCN)C(=O)N[C@@H]([C@@H](C)O)C(=O)N1)C(N)=O` [Example 2, DPhe-cyclo(NMeCys-Phe-DTrp-Lys-Thr-Cys)-Thr-NH2], the Kd was more than 1 µM on hSSTR-4; 0.0237 µM on hSSTR-5; 0.013 ± 0.0005 µM at hSSTR-3; 0.00104 ± 0.00018 µM at hSSTR-2; 0.378 ± 0.119 µM on hSSTR-1.

Take `C[C@@H](O)[C@H](NC(=O)[C@@H]1CSSC[C@H](NC(=O)[C@H](N)Cc2ccccc2)C(=O)N[C@@H](Cc2ccccc2)C(=O)N(C)[C@H](Cc2c[nH]c3ccccc23)C(=O)N[C@@H](CCCCN)C(=O)N[C@@H]([C@@H](C)O)C(=O)N1)C(N)=O` [Example 4, DPhe-cyclo(Cys-Phe-NMeDTrp-Lys-Thr-Cys)-Thr-NH2]: the values for the Kd on hSSTR-4, at hSSTR-5 and at hSSTR-1 were more than 1 µM, 0.00061 ± 0.00036 µM and 1.2 µM, respectively.

In the case of `C[C@@H](O)[C@H](NC(=O)[C@@H]1CSSC[C@H](NC(=O)[C@H](N)Cc2ccccc2)C(=O)N[C@@H](Cc2ccccc2)C(=O)N[C@H](Cc2c[nH]c3ccccc23)C(=O)N[C@@H](CCCCN)C(=O)N(C)[C@@H]([C@@H](C)O)C(=O)N1)C(N)=O` [Example 6, DPhe-cyclo(Cys-Phe-DTrp-Lys-NMeThr-Cys)-Thr-NH2], the Kd at hSSTR-4, on hSSTR-5, at hSSTR-3, on hSSTR-2 and on hSSTR-1 was more than 1 µM in each case.

Take `C[C@@H](O)[C@H](NC(=O)[C@@H]1CSSC[C@H](NC(=O)[C@H](N)Cc2ccccc2)C(=O)N[C@@H](Cc2ccccc2)C(=O)N[C@H](Cc2c[nH]c3ccccc23)C(=O)N[C@@H](CCCCN)C(=O)N[C@@H]([C@@H](C)O)C(=O)N1C)C(N)=O` [Example 7, DPhe-cyclo(Cys-Phe-DTrp-Lys-Thr-NMeCys)-Thr-NH2]: the Kd at hSSTR-4 worked out at 0.574 µM; at hSSTR-5, 0.0284 ± 0.0193 µM; at hSSTR-2 it was 0.0562 ± 0.0264 µM; on hSSTR-1, 0.622 ± 0.172 µM.

In the case of `C[C@@H](O)[C@H](NC(=O)[C@@H]1CSSC[C@H](NC(=O)[C@@H](N)Cc2ccc(O)cc2)C(=O)N[C@@H](Cc2ccccc2)C(=O)N[C@H](Cc2c[nH]c3ccccc23)C(=O)N[C@@H](CCCCN)C(=O)N(C)[C@@H]([C@@H](C)O)C(=O)N1)C(N)=O` [Example 15, Tyr-cyclo(Cys-Phe-DTrp-Lys-NMeThr-Cys)-Thr-NH2] (H-YCF[dW]K[NMeT]CT-NH2; disulfide 2-7; N-terminus assumed), the Kd was not below 1 µM at hSSTR-4; 0.09279 ± 0.0007 µM at hSSTR-5; 0.44 ± 0.126 µM on hSSTR-3; 0.0613 ± 0.00695 µM on hSSTR-2; 1 µM at hSSTR-1.

For the compound `C[C@H](N)C(=O)NCC(=O)N[C@H]1CSSC[C@@H](C(=O)O)NC(=O)[C@H](CO)NC(=O)[C@H]([C@@H](C)O)NC(=O)[C@H](Cc2ccccc2)NC(=O)[C@H]([C@@H](C)O)NC(=O)[C@H](CCCCN)NC(=O)[C@H](Cc2c[nH]c3ccccc23)NC(=O)[C@H](Cc2ccccc2)NC(=O)[C@H](Cc2ccccc2)NC(=O)[C@H](CC(N)=O)NC(=O)[C@H](CCCCN)NC1=O` [SRIF-14], the IC50 in experiment [1] worked out at 0.00017 ± 5.4e-05 µM.

As to SRIF-28, in experiment [1], the half-maximal inhibitory concentration (IC50) stood at 0.00023 ± 5.2e-05 µM.

For orientation: Kd means the free concentration of one partner at which half of the binding sites on the other are occupied at equilibrium, for simple one-to-one binding. What is called IC50 is the concentration at which inhibition is half-maximal.
